Measured values from the supplement of paper PMC4862054.

Experiments:
Assay in all cases: normalised viability (% of control), CellTiter-Blue; higher = more viable cells (about 100 = DMSO control)
Details in all cases: incubation time: 72 h
CAL-148 = tested on: CAL-148
Summary of the method: (§1)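 The reported figure is normalised viability at a single listed concentration of the series. Breast cancer cell lines (20 µl suspension) went onto 384-well plates holding compound in 5 µl medium for 72 h. CellTiter-Blue (2.5 µl, 2 h, 37 °C) was read by fluorescence at 560/590 nm, and each plate was scaled to vehicle at 100 and a positive kill control at 0.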

MDA-MB-436 = tested on: MDA-MB-436
Summary of the method: as §1

BT-474 = tested on: BT-474
Summary of the method: as §1

MDA-MB-231 = tested on: MDA-MB-231
Summary of the method: as §1

Hs578T = tested on: Hs578T
Summary of the method: as §1

HDQ-P1 = tested on: HDQ-P1
Summary of the method: as §1

HCC1599 = tested on: HCC1599
Summary of the method: as §1

MFM-223 = tested on: MFM-223
Summary of the method: as §1

HCC1937 = tested on: HCC1937
Summary of the method: as §1

CAL-85-1 = tested on: CAL-85-1
Summary of the method: as §1

DU-4475 = tested on: DU-4475
Summary of the method: as §1

HCC1143 = tested on: HCC1143
Summary of the method: as §1

CC1(C)CNc2cc(NC(=O)c3cccnc3NCc3ccncc3)ccc21 [Motesanib]
normalised viability [%]
Details	3 nM	10 nM	30 nM	100 nM	1000 nM	10000 nM
BT-474	–	109	–	–	101	103
CAL-85-1	83.1	–	80.9	85.3	–	–
CAL-148	94.8	–	83.7	90.7	–	–
DU-4475	85.6	–	79.6	83.9	–	–
HCC1143	–	79.9	–	–	82.4	70.4
HCC1599	–	83.8	–	–	98.1	95.9
HCC1937	–	104	–	–	91.5	88.5
HDQ-P1	76.7	–	95.1	86.6	–	–
Hs578T	–	104	–	–	95.5	95.7
MDA-MB-231	–	69.8	–	–	77.3	72.8
MDA-MB-436	–	72.5	–	–	63	73
MFM-223	–	80.8	–	–	76.4	83.2

C[C@]1(O)C[C@@H](c2nc(-c3ccc4ccc(-c5ccccc5)nc4c3)c3c(N)nccn32)C1 [OSI-906]
normalised viability [%]
Details	3 nM	10 nM	30 nM	100 nM	1000 nM	10000 nM
BT-474	–	102	–	–	91.5	78.4
CAL-85-1	97.3	–	85.7	86.4	–	–
CAL-148	96.8	–	89.8	91.7	–	–
DU-4475	92.7	–	104	88.8	–	–
HCC1143	–	99.9	–	–	85.5	75.2
HCC1599	–	104	–	–	76.8	78.9
HCC1937	–	92.8	–	–	79.7	48.4
HDQ-P1	79.4	–	83.9	85.4	–	–
Hs578T	–	103	–	–	95.2	71.4
MDA-MB-231	–	84.4	–	–	79.7	74.3
MDA-MB-436	–	85.2	–	–	96	71.7
MFM-223	–	98.3	–	–	91.6	74.5

CC[C@@H]1C(=O)OC[C@@H]1Cc1cncn1C [Pilocarpine]
normalised viability [%]
Details	12 nM	40 nM	120 nM	400 nM	4000 nM	40000 nM
BT-474	–	108	–	–	158	116
CAL-85-1	98.1	–	98.3	101	–	–
CAL-148	95.5	–	101	104	–	–
DU-4475	103	–	92.1	107	–	–
HCC1143	–	87.5	–	–	90.3	88.4
HCC1599	–	104	–	–	92.2	92.8
HCC1937	–	109	–	–	107	97.4
HDQ-P1	123	–	137	118	–	–
Hs578T	–	101	–	–	102	108
MDA-MB-231	–	94.9	–	–	116	118
MDA-MB-436	–	95.6	–	–	95	104
MFM-223	–	96.4	–	–	90.7	63.7
